Assay results: patent publication US20230293526A1, “METHOD FOR TREATING CANCER WITH A REVERSE TRANSCRIPTASE INHIBITOR” (PrimeFour Therapeutics, Inc., priority 2020, published 2023)

Tests used:
[1] = tested on: human LINE-1; test: Human LINE-1 (L1) retrotransposition dual-luciferase reporter assay in HeLa cells; assay type: cell-based; conditions: Homo sapiens, HeLa, 72 h, read-out: Human LINE-1 IC50 (Human L1 activity inhibition)
Procedure, shortened: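 HeLa cells transfected with dual-luciferase L1 plasmid pYX017 (100 ng/well), dosed immediately after with serially diluted compounds (0.2% DMSO final) in triplicate and incubated 72 h at 37 °C. Relative L1 activity = Firefly/Renilla ×10,000; IC50 from logistic non-linear regression.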

[2] = tested on: cancer cell lines; test: Cancer cell proliferation activity of representative nucleosides, CellTiterGlo 72 h (Example 7, Tables 8 and 9); assay type: cell-based; conditions: 72 h
Procedure, shortened: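 Cancer cell lines seeded and incubated at 37° C overnight, then exposed to nucleosides (final DMSO 0.1%) for 72 h at 37° C with 5% or 10% CO2. Viability read by CellTiterGlo luminescence and normalized to 0.1% DMSO (100%) and 10 μM staurosporine (0%) controls.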

C#C[C@]1(CO)O[C@@H](n2cnc3c(=O)[nH]c(N)nc32)C[C@@H]1O [compound 13]
IC50 [1]: 0.51 nM
IC50 ([2]; 72 h, 5637, bladder): 2270 nM
IC50 ([2]; CLS439, bladder): > 50000 nM
IC50 ([2]; HS729, muscle): 1510 nM
IC50 ([2]; J82, bladder): 1970 nM
IC50 ([2]; JAR, placenta): > 50000 nM
IC50 ([2]; MT3, breast): 370 nM
IC50 ([2]; PC3, prostate): 1800 nM
IC50 ([2]; RD, muscle): > 50000 nM
IC50 ([2]; T24, bladder): 4540 nM
IC50 ([2]; Homo sapiens, 22Rv1, 72 h, 22RV1, prostate): 2220 nM
IC50 ([2]; Homo sapiens, 786-0, 72 h, 786O, kidney): > 50000 nM
IC50 ([2]; Homo sapiens, A204, 72 h, A204, muscle): 270 nM
IC50 ([2]; Homo sapiens, A549, 72 h, A549, lung): 2060 nM
IC50 ([2]; Homo sapiens, A673, 72 h, A673, bone): > 50000 nM
IC50 ([2]; Homo sapiens, A2780, 72 h, A2780, ovary): 15600 nM
IC50 ([2]; Homo sapiens, A-375, 72 h, A375, skin): 2350 nM
IC50 ([2]; Homo sapiens, A-431, 72 h, A431, skin): 3030 nM
IC50 ([2]; Homo sapiens, ACHN, kidney): 1440 nM
IC50 ([2]; Homo sapiens, ASPC1, 72 h, ASPC1, pancreas): 1330 nM
IC50 ([2]; Homo sapiens, BT-20, 72 h, BT20, breast): > 50000 nM
IC50 ([2]; Homo sapiens, BXPC-3, 72 h, BXPC3, pancreas): 1430 nM
IC50 ([2]; Homo sapiens, C-33-A, C33A, endometrial): 2030 nM
IC50 ([2]; Homo sapiens, CAKI-1, 72 h, CAKI1, kidney): 1840 nM
IC50 ([2]; Homo sapiens, COLO 205, 72 h, COLO205, colon): 1470 nM
IC50 ([2]; Homo sapiens, COLO-678, 72 h, COLO678, colon): 4090 nM
IC50 ([2]; Homo sapiens, Ca-Ski, CASKI, endometrial): > 50000 nM
IC50 ([2]; Homo sapiens, Caco-2, 72 h, CACO2, colon): > 50000 nM
IC50 ([2]; Homo sapiens, Calu-6, 72 h, CALU6, lung): > 50000 nM
IC50 ([2]; Homo sapiens, DLD-1, 72 h, DLD1, colon): > 50000 nM
IC50 ([2]; Homo sapiens, DU-145, 72 h, DU145, prostate): 4070 nM
IC50 ([2]; Homo sapiens, EFO-21, 72 h, EFO21, ovary): 4000 nM
IC50 ([2]; Homo sapiens, EJ-28, 72 h, EJ28, bladder): 6820 nM
IC50 ([2]; Homo sapiens, Granta-519, 72 h, GRANTA-519, hematological): 2440 nM
IC50 ([2]; Homo sapiens, HCT-15, 72 h, HCT15, colon): > 50000 nM
IC50 ([2]; Homo sapiens, HCT-116, 72 h, HCT116, colon): 3370 nM
IC50 ([2]; Homo sapiens, HEK293, 72 h, HEK293, kidney): 7690 nM
IC50 ([2]; Homo sapiens, HL-60, 72 h, HL-60, hematological): 2060 nM
IC50 ([2]; Homo sapiens, HT-29, 72 h, HT29, colon): 2280 nM
IC50 ([2]; Homo sapiens, HT-1080, 72 h, HT1080, connective tissue): 3880 nM
IC50 ([2]; Homo sapiens, HeLa, endometrial): 1200 nM
IC50 ([2]; Homo sapiens, HepG2, 72 h, HEPG2, liver): 1240 nM
IC50 ([2]; Homo sapiens, Hs-578T, HS578T, breast): > 50000 nM
IC50 ([2]; Homo sapiens, IGROV-1, 72 h, IGROV1, ovary): 2760 nM
IC50 ([2]; Homo sapiens, IMR-90, 72 h, IMR90, lung): > 50000 nM
IC50 ([2]; Homo sapiens, JEG-3, 72 h, JEG3, placenta): > 50000 nM
IC50 ([2]; Homo sapiens, JIMT-1, 72 h, JIMT1, breast): 2040 nM
IC50 ([2]; Homo sapiens, K562, 72 h, K-562, hematological): > 50000 nM
IC50 ([2]; Homo sapiens, Kasumi 1, 72 h, KASUMI-1, hematological): 100 nM
IC50 ([2]; Homo sapiens, L-363, 72 h, L-363, hematological): > 50000 nM
IC50 ([2]; Homo sapiens, LoVo, colon): 3100 nM
IC50 ([2]; Homo sapiens, MCF7, 72 h, MCF7, breast): 5950 nM
IC50 ([2]; Homo sapiens, MDA-MB-231, 72 h, MDAMB231, breast): 1320 nM
IC50 ([2]; Homo sapiens, MDA-MB-435, 72 h, MDAMB435, skin): > 50000 nM
IC50 ([2]; Homo sapiens, MDA-MB-436, 72 h, MDAMB436, breast): 1500 nM
IC50 ([2]; Homo sapiens, MDA-MB-468, 72 h, MDAMB468, breast): > 50000 nM
IC50 ([2]; Homo sapiens, MG-63, 72 h, MG63, bone): > 50000 nM
IC50 ([2]; Homo sapiens, MHH-ES-1, 72 h, MHHES1, bone): > 50000 nM
IC50 ([2]; Homo sapiens, MIA PaCa-2, 72 h, MIAPACA2, pancreas): 6240 nM
IC50 ([2]; Homo sapiens, MINO, hematological): 460 nM
IC50 ([2]; Homo sapiens, MV4-11, 72 h, MV4-11, hematological): 1020 nM
IC50 ([2]; Homo sapiens, NCI-H23, 72 h, NCI-H23, lung): 4670 nM
IC50 ([2]; Homo sapiens, NCI-H82, 72 h, NCIH82, lung): 15400 nM
IC50 ([2]; Homo sapiens, NCI-H292, 72 h, NCIH292, lung): 1070 nM
IC50 ([2]; Homo sapiens, NCI-H460, 72 h, NCIH460, ung): 1410 nM
IC50 ([2]; Homo sapiens, OVCAR-3, 72 h, OVCAR3, ovary): 760 nM
IC50 ([2]; Homo sapiens, OVCAR-4, 72 h, OVCAR4, ovary): > 50000 nM
IC50 ([2]; Homo sapiens, PANC-1, 72 h, PANC1, pancreas): > 50000 nM
IC50 ([2]; Homo sapiens, PLC-PRF-5, 72 h, PLCPRF5, liver): 2100 nM
IC50 ([2]; Homo sapiens, Panc1005, 72 h, PANC1005, pancreas): 3080 nM
IC50 ([2]; Homo sapiens, Ramos, hematological): 1170 nM
IC50 ([2]; Homo sapiens, SAOS-2, 72 h, SAOS2, bone): 1660 nM
IC50 ([2]; Homo sapiens, SF-268, 72 h, SF268, brain): > 50000 nM
IC50 ([2]; Homo sapiens, SF-295, 72 h, SF295, brain): 7160 nM
IC50 ([2]; Homo sapiens, SK-BR-3, 72 h, SKBR3, breast): 4610 nM
IC50 ([2]; Homo sapiens, SK-HEP1, 72 h, SKHEP1, liver): 2290 nM
IC50 ([2]; Homo sapiens, SK-LMS-1, 72 h, SKLMS1, uterus): 2380 nM
IC50 ([2]; Homo sapiens, SK-MEL-5, 72 h, SKMEL5, skin): > 50000 nM
IC50 ([2]; Homo sapiens, SK-MEL-28, 72 h, SKMEL28, skin): 6060 nM
IC50 ([2]; Homo sapiens, SK-N-AS, SKNAS, brain): 2440 nM
IC50 ([2]; Homo sapiens, SK-N-SH, SKNSH, brain): 2290 nM
IC50 ([2]; Homo sapiens, SK-OV-3, 72 h, SKOV3, ovary): 2020 nM
IC50 ([2]; Homo sapiens, SNB-75, 72 h, SNB75, brain): 12800 nM
IC50 ([2]; Homo sapiens, SU-DHL10, 72 h, SU-DHL-10, hematological): 5600 nM
IC50 ([2]; Homo sapiens, SU-DHL-6, 72 h, SU-DHL-6, hematological): 4190 nM
IC50 ([2]; Homo sapiens, SW-620, 72 h, SW620, colon): 1820 nM
IC50 ([2]; Homo sapiens, TE-671, 72 h, TE671, muscle): > 50000 nM
IC50 ([2]; Homo sapiens, THP-1, 72 h, THP-1, hematological): 1970 nM
IC50 ([2]; Homo sapiens, U2OS, bone): > 50000 nM
IC50 ([2]; Homo sapiens, U-87 MG, U87MG, brain): 2380 nM
IC50 ([2]; Homo sapiens, UMUC3, 72 h, UMUC3, bladder): > 50000 nM
IC50 ([2]; Homo sapiens, UO-31, 72 h, UO31, kidney): 3290 nM
IC50 ([2]; Homo sapiens, WSU-NHL, hematological): 2770 nM
IC50 ([2]; NCI-H358M, NCIH358M, lung): 330 nM
IC50 ([2]; PBMC, hematological): 190 nM
IC50 ([2]; RD-ES, RDES, bone): 2480 nM
